Data: ChEMBL document CHEMBL3301361, “Experimental in vitro DMPK and physicochemical data on a set of publicly disclosed compounds”

test: physchem; details: octan-1-ol/water, pH 7.4

With `Cn1c(=O)n(Cc2ccc(Br)cc2)c2ccccc21` as the molecule, how does the logD read?
The logD was 2.81.

For `CN1CCN(C(=O)OC2c3nccnc3C(=O)N2c2ccc(Cl)cn2)CC1` (centres undefined) [ZOPICLONE], which logD is on record?
The logD was 1.1.

With `CC(O)C(C)OC(=O)[C@@H]1CC2c3cccc4c3c(cn4C(C)C)CC2N(C)C1` (some centres undefined) as the molecule, how does the logD read?
The logD was 2.8.

Which logD does the source give for `Cc1cc(C(N)=O)ccc1O[C@H]1C[C@H]2CC[C@@H](C1)N2Cc1ccccc1` here?
Its logD is 2.23.

With `c1ccc2ncccc2c1` [QUINOLINE] as the molecule, how does the logD read?
Its logD is 2.09.

With `CCOC(=O)Nc1cccc([C@@H](c2ccc(C(=O)N(C)CC)cc2)N2CCN(Cc3nc[nH]c3C)CC2)c1` as the molecule, how does the logD read?
Its logD is 2.32.

With `CCN1CCN(C(=O)c2cc3cc(F)ccc3[nH]2)CC1` as the molecule, how does the logD read?
Its logD is 2.28.

For `Nc1ccc2nc(-c3ccc(O)cc3)sc2c1`, which logD is on record?
The logD was 3.1.

For `CN1CCC[C@H]1c1ccccn1`, which logD is on record?
Its logD is 0.44.

same assay, conditions: octan-1-ol/water, pH 7.4, LogD7.4

Which logD does the source give for `COc1cc2nnc(C(N)=O)c(Nc3cccc(Cl)c3F)c2cc1N1CCN(C)CC1` here?
Its logD is 2.35.

For `OCCOCCN1CCN(C(c2ccccc2)c2ccc(Cl)cc2)CC1` (centres undefined) [HYDROXYZINE], which logD is on record?
The logD was 3.08.

With `CCCCN(CCNC[C@H](O)c1ccc(O)c2[nH]c(=O)sc12)C(=O)CCOCCc1ccccc1` as the molecule, how does the logD read?
Its logD is 2.51.

For `Cc1cn([C@H]2CCCN(S(=O)(=O)c3ccc(O)c(Oc4cccc(C(F)(F)F)c4)c3)C2)c(=O)[nH]c1=O`, which logD is on record?
The logD was 2.27.

Which logD does the source give for `N=C(N)Nc1nc2ccccc2o1` here?
Its logD is 1.91.

With `C[C@@H](NC1=CC(=O)CCC1)c1ccc(Nc2ncc3cc(-c4ccncc4)ccc3n2)cc1` as the molecule, how does the logD read?
Its logD is 3.17.

With `Cc1cc(=O)[nH]c2ccccc12` as the molecule, how does the logD read?
Its logD is 1.9.

With `O=C1O[C@@H](Cn2nncc2F)CN1c1ccc(C2=CCS(=O)(=O)CC2)c(F)c1` as the molecule, how does the logD read?
Its logD is 3.54.

For `N#Cc1c(-c2ccc(-c3ccccc3C(F)(F)F)cc2)nc2ccncc2c1O`, which logD is on record?
Its logD is 3.3.

For `Oc1ccc(C(c2ccc(O)cc2)C(Cl)(Cl)Cl)cc1`, which logD is on record?
The logD was 3.86.

Which logD does the source give for `NC1(C(=O)NC(CO)c2ccc(Cl)cc2)CCN(c2ncnc3[nH]ccc23)CC1` (centres undefined) here?
The logD was 2.4.

Which logD does the source give for `COCCOc1ccc(Nc2ncc3cc(-c4ccncc4)ccc3n2)cc1` here?
Its logD is 3.1.

With `CC[C@H](NC(=O)c1c(N)c(-c2cccc(F)c2)nc2ccccc12)c1ccccc1` as the molecule, how does the logD read?
The logD was 4.05.

For `O=C(Nc1nnn[nH]1)c1cc(Oc2ccccc2)c2ccccn2c1=O` [QUINOTOLAST], which logD is on record?
Its logD is 0.67.

Which logD does the source give for `NC(=O)Nc1cc(-c2ccccc2)sc1C(=O)N[C@H]1CCCNC1` here?
The logD was 1.04.

Which logD does the source give for `COC(=O)CCC(=O)Nc1ccc2c(c1)-c1ccccc1C(=O)C2=O` here?
Its logD is 2.72.

For `Nc1ncc(NC(=O)c2cc(NC(=O)c3cccc(C(F)(F)F)c3)ccc2Cl)cc1Cl`, which logD is on record?
The logD was 3.26.

Which logD does the source give for `CC(C)Nc1ccc2cnn(-c3cncc(-n4ccc(CC(=O)O)c4)n3)c2c1` here?
The logD was 1.24.

With `CSc1ccc(-c2nc(-c3ccc(F)cc3)c(-c3ccncc3)[nH]2)cc1` as the molecule, how does the logD read?
Its logD is 2.97.

For `Cc1cccc(Nc2ccncc2S(=O)(=O)NC(=O)NC(C)C)c1` [TORSEMIDE], which logD is on record?
Its logD is 0.3.

Which logD does the source give for `C#CC(C)(C)NC(=O)c1sccc1Oc1ccc(F)cc1[N+](=O)[O-]` here?
Its logD is 3.

With `Nc1nonc1C(=NO)Nc1ccc(F)c(Cl)c1` as the molecule, how does the logD read?
The logD was 2.7.

Which logD does the source give for `CNC(=O)C1(N2CCCCC2=O)CCN(CC[C@H](CN(C)C(=O)c2cc(C#N)cc3ccccc23)c2ccc(Cl)c(Cl)c2)CC1` here?
The logD was 2.5.

For `Cc1occc(=O)c1OCc1ccc(F)cc1`, which logD is on record?
Its logD is 1.91.

For `c1ccc(CNCCNCc2ccccc2)cc1`, which logD is on record?
The logD was 0.73.

Which logD does the source give for `CC(C)C[C@H](CO)Nc1nc(SCc2ccncc2)nc2nc(N)sc12` here?
The logD was 2.9.

Which logD does the source give for `CN(C(=O)Cc1ccc(C#N)cc1)C1CCN(CCC(c2ccccc2)c2ccccc2)CC1` here?
Its logD is 3.7.

For `CC(C)C(NC(=O)Cn1c(-c2ccc(F)cc2)ncc(NC(=O)OCc2ccccc2)c1=O)C(=O)C(F)(F)F` (centres undefined), which logD is on record?
Its logD is 2.47.

Which logD does the source give for `Cc1ccc2c(c1)c(-c1ccnc3cc(C(F)(F)F)ccc13)c(C)n2CC(=O)O` here?
The logD was 1.78.

Which logD does the source give for `C[C@@H]1CN(c2nc(N3CCOC[C@@H]3C)c3ccc(-c4ccccc4)nc3n2)C[C@H](C)O1` here?
The logD was 3.75.

Which logD does the source give for `CCN1CCOc2cc(COc3ccccc3)cnc21` here?
Its logD is 3.7.

Which logD does the source give for `Nc1ccc2[nH]c(Cc3ccc(Oc4ccccc4)cc3)nc2c1` here?
The logD was 3.8.

For `CCNCc1cncc(-c2ccc(F)cc2OC)n1`, which logD is on record?
Its logD is 1.18.

Which logD does the source give for `CC#Cc1cncc(-c2cccc(C3(C4CC4)N=C(C)C(N)=N3)c2)c1` (centres undefined) here?
The logD was 3.3.

Which logD does the source give for `CCCC(=O)Nc1ccc2c(c1)C(=O)C(=O)c1ccccc1-2` here?
The logD was 2.81.

For `CC(C)C(NC(=O)Cn1c(-c2ccccc2)ccc(NC(=O)Cc2ccc(C(=O)O)cc2)c1=O)C(=O)C(F)(F)F` (centres undefined), which logD is on record?
Its logD is 0.35.

For `CC[C@H](NC(=O)c1c([S+](C)[O-])c(-c2ccccc2)nc2cc(Br)ccc12)c1ccccc1` (some centres undefined), which logD is on record?
The logD was 3.18.

Which logD does the source give for `CCC(c1nc2ccsc2c(=O)n1Cc1cccnc1)N(CCCN)C(=O)c1ccc(C)cc1` (centres undefined) here?
Its logD is 0.01.

Which logD does the source give for `Cc1ccc(/C=C(\C#N)C(N)=O)cc1` here?
Its logD is 2.09.

Which logD does the source give for `COC[C@@H](c1ccc(C(F)(F)F)cc1)N1CCN(C2(C)CCN(C(=O)c3c(C)ncnc3C)CC2)C[C@@H]1C` [VICRIVIROC] here?
The logD was 2.7.

With `Oc1c2ncc3ccccc3c2nn1-c1ccc(Cl)cc1` as the molecule, how does the logD read?
The logD was 1.52.

With `COc1ccc(-c2coc3cc(OC)cc(OC)c3c2=O)cc1` [BIOCHANIN A, DIMETHYL ETHER] as the molecule, how does the logD read?
Its logD is 3.05.

With `NC(=O)c1cnc(N[C@H]2CCCNC2)c2cc(-c3ccc(F)c(Cl)c3)sc12` as the molecule, how does the logD read?
Its logD is 2.94.

Which logD does the source give for `CCn1c(=O)c2c(=O)cc(O)oc2c2ccccc21` here?
Its logD is 1.13.

With `CNc1ccc2ncc(-c3cccc(O)c3)n2n1` as the molecule, how does the logD read?
The logD was 2.99.

Which logD does the source give for `CC(=O)Nc1ccccn1` here?
Its logD is 0.5.

With `COc1cc(O)cc2occ(-c3ccc(O)cc3)c(=O)c12` as the molecule, how does the logD read?
The logD was 2.

For `O=C1c2ccccc2C(=O)N1c1ccc(O)cc1`, which logD is on record?
Its logD is 2.

With `Nc1nc2ccc(-c3cccc(O)c3)cc2s1` as the molecule, how does the logD read?
Its logD is 3.1.

With `Cc1nc(C)c(-c2ccc3c(c2)CC[C@]32CC[C@@H](c3nnn[nH]3)CC2)nc1C(N)=O` as the molecule, how does the logD read?
The logD was 1.4.

Which logD does the source give for `O=C1C(=O)c2cccc([N+](=O)[O-])c2-c2ccccc21` here?
Its logD is 2.6.

With `COc1ccc2c(C)cc(N[C@H]3CCC[C@H](NCc4ccsc4)C3)nc2c1` as the molecule, how does the logD read?
Its logD is 2.46.

With `O=c1ccoc2cc(OCc3ccccc3)ccc12` as the molecule, how does the logD read?
Its logD is 3.33.

With `c1ccc(-c2nc3ccccc3[nH]2)nc1` as the molecule, how does the logD read?
Its logD is 2.5.

Which logD does the source give for `N#Cc1ccc2cccc(O)c2n1` here?
The logD was 1.81.

With `CC1CC(CN)CC(CO)C1` (centres undefined) as the molecule, how does the logD read?
Its logD is -1.4.

With `Cc1nc(N)c2nc(O)n(Cc3ccccc3)c2n1` as the molecule, how does the logD read?
The logD was 2.04.

For `COc1cc2c(Nc3cccc(Cl)c3Cl)c(C(N)=O)cnc2cc1NCCN(C)C`, which logD is on record?
The logD was 3.41.

Which logD does the source give for `CC(=O)Nc1ccc2[nH]cc(-c3cc(NC4CC4)n4ncc(C#N)c4n3)c2c1` here?
Its logD is 2.65.

With `O=c1ccc(=O)c2ccccc2[nH]1` as the molecule, how does the logD read?
The logD was 1.02.

For `COc1cc(C(=O)NS(=O)(=O)c2ccccc2)ccc1Cn1cnc2ccc(NC(=O)CC3CCCC3)cc21`, which logD is on record?
Its logD is 0.9.

Which logD does the source give for `Cc1cc2n[nH]c(=O)n2c2cc(-c3ccco3)ccc12` here?
The logD was 2.07.

With `O=C(COc1ccccc1)N1CCOCC1` as the molecule, how does the logD read?
Its logD is 0.75.

With `CS(=O)(=O)NCC(NC(=O)C1(N)CCN(c2ncnc3[nH]ccc23)CC1)c1ccc(Cl)cc1` (centres undefined) as the molecule, how does the logD read?
The logD was 2.1.

Which logD does the source give for `CCC(c1nc2ccsc2c(=O)n1Cc1ccc(Cl)cc1)N(CCCN)C(=O)c1ccc(C)cc1` (centres undefined) here?
Its logD is 2.32.

Which logD does the source give for `Cc1cn([C@H]2CCCN(Cc3cccc(Oc4cccc(Br)c4)c3)C2)c(=O)[nH]c1=O` here?
The logD was 3.68.

Which logD does the source give for `CCN(CC)CCOC(=O)C1(C2CCCCC2)CCCCC1` [DICYCLOMINE] here?
The logD was 3.72.

With `O=C(Nc1cccc(Cl)c1)N1CCN(C[C@@H]2CCCN(C3CC3)C2)CC1` as the molecule, how does the logD read?
Its logD is 2.74.

For `CCN(CC)CCOc1ccc(N(C)C(=O)c2ccc(-c3ccc(C(F)(F)F)cc3)cc2)cc1OC`, which logD is on record?
The logD was 3.13.

With `Cc1cnc(NC(=O)c2cc(Oc3cnc(C(=O)N(C)C)nc3)c3cc(C)oc3c2)cn1` [NERIGLIATIN] as the molecule, how does the logD read?
Its logD is 2.1.
